Experimental data reported in the supplement of paper PMC5752671.
Counter-ions that a name gives are not always drawn.

How the values were obtained:
Conditions in all cases: 4 days
[1] = tested on: U937; assay: area under dose-response curve (cell viability) (AUC (arbitrary, % viability x log concentration)); higher = less sensitive (more viable)
How it was run: (§1)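 Fourteen leukemia cell lines were plated on extracellular-matrix-coated 384-well plates. Drugs were added robotically the next day at eight concentrations spanning 4–5 logs within 10^–12–10^–4 M, tailored per drug, in duplicate. Viability was read with CellTiter-Glo after 4 days. The value is the area under a four-parameter sigmoid fitted to the duplicate-averaged dose-response.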

[2] = tested on: MOLM/13; assay: as above
How it was run: as §1

[3] = tested on: MV4.11; assay: as above
How it was run: as §1

[4] = tested on: KASUMI1; assay: as above
How it was run: as §1

[5] = tested on: HL60; assay: as above
How it was run: as §1

[6] = tested on: KG1; assay: as above
How it was run: as §1

[7] = tested on: MOLM/16; assay: IC50 (cell viability) (log10 M)
How it was run: (§2)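 The IC50 entries come from fitted dose-response curves. Each value is the concentration in log10 M where a fitted four-parameter curve reaches 50% viability, and the highest tested concentration is entered when that level is not reached. Fourteen leukemia cell lines on extracellular-matrix-coated 384-well plates received drugs in duplicate at eight concentrations within 10^–12–10^–4 M, and viability was read with CellTiter-Glo after 4 days.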

[8] = tested on: EOL-1; assay: IC50 (cell viability) (log10 M)
How it was run: as §2

[9] = tested on: PL-21; assay: IC50 (cell viability) (log10 M)
How it was run: as §2

[10] = tested on: U937; assay: IC50 (cell viability) (log10 M)
How it was run: as §2

[11] = tested on: MOLM/13; assay: IC50 (cell viability) (log10 M)
How it was run: as §2

[12] = tested on: MV4.11; assay: IC50 (cell viability) (log10 M)
How it was run: as §2

[13] = tested on: OCI-AML3; assay: IC50 (cell viability) (log10 M)
How it was run: as §2

[14] = tested on: KASUMI1; assay: IC50 (cell viability) (log10 M)
How it was run: as §2

[15] = tested on: NB4; assay: IC50 (cell viability) (log10 M)
How it was run: as §2

[16] = tested on: HL60; assay: IC50 (cell viability) (log10 M)
How it was run: as §2

[17] = tested on: OCI-AML2; assay: IC50 (cell viability) (log10 M)
How it was run: as §2

[18] = tested on: THP-1; assay: IC50 (cell viability) (log10 M)
How it was run: as §2

[19] = tested on: SKM1; assay: IC50 (cell viability) (log10 M)
How it was run: as §2

[20] = tested on: KG1; assay: IC50 (cell viability) (log10 M)
How it was run: as §2

| Structure (SMILES) | IC50 (log10 M) [7] | IC50 (log10 M) [10] | IC50 (log10 M) [11] | IC50 (log10 M) [12] | IC50 (log10 M) [13] | IC50 (log10 M) [16] | IC50 (log10 M) [17] | IC50 (log10 M) [18] | IC50 (log10 M) [19] | area under dose-response curve [1] | area under dose-response curve [2] | area under dose-response curve [3] | area under dose-response curve [4] | area under dose-response curve [5] | area under dose-response curve [6] | IC50 (log10 M) [8] | IC50 (log10 M) [9] | IC50 (log10 M) [14] | IC50 (log10 M) [15] | IC50 (log10 M) [20] |
| --- | --- | --- | --- | --- | --- | --- | --- | --- | --- | --- | --- | --- | --- | --- | --- | --- | --- | --- | --- | --- |
| O=C1c2c(O)ccc(O)c2C(=O)c2c(NCCNCCO)ccc(NCCNCCO)c21 [Mitoxantrone] | -8.65 | -9.09 | -9.18 | < -9.48 | -8.3 | -7.83 | -9.21 | -8.04 | -8.57 | 205 | 185 | 153 | 285 | 306 | 344 | < -9.48 | -7.76 |  | -9.01 | -7.61 |
| Nc1nc(Cl)nc2c1ncn2[C@H]1C[C@H](O)[C@@H](CO)O1 [Cladribine] | -7.36 | -8.47 | -7.74 | < -8.48 | -8.35 | -7.09 | < -8.48 | -6.82 | -6.97 | 246 | 329 | 218 | 512 | 515 | 553 | < -8.48 | -8.25 | -6.94 | -7.52 | -6.79 |
| CCN(CC)CCCC(C)Nc1c2ccc(Cl)cc2nc2ccc(OC)cc12 (stereo unspecified) [Acrichine] | -5.52 | -5.48 | -5.57 | -5.79 | -5.45 | -5.35 | -5.69 | -5.33 | -5.47 | 636 | 598 | 615 | 639 | 673 | 641 | -5.82 | -5.46 | -5.52 | -5.46 | -5.44 |
| Cc1ccc(NC(=O)c2ccc(CN3CCN(C)CC3)cc2)cc1Nc1nc(-c2cccnc2)cs1 [Masitinib] | -5.22 | -5.07 | -5.11 | -5.28 | -5.01 | > -5 | > -5 | > -5 | > -5 | 648 | 693 | 596 | 555 | 669 | 693 | -7.33 | -5.36 | -5.32 | > -5 | > -5 |
| Nc1cccc2c1CN(C1CCC(=O)NC1=O)C2=O (stereo unspecified) [Lenalidomide] | > -5 | > -5 | > -5 | > -5 | > -5 | > -5 | > -5 | > -5 | > -5 | 641 | 599 | 671 | 739 | 745 | 754 | > -5 | > -5 | > -5 | > -5 | > -5 |
| N[C@@H](Cc1ccc(N(CCCl)CCCl)cc1)C(=O)O [Melphalan] | -5.53 | -5.99 | -6.22 | -6.72 | -5.91 | -5.55 | -6.57 | -5.55 | -5.41 | 540 | 537 | 423 | 610 | 621 | 644 | -6.64 | -5.39 | -5.38 | -6.08 | -5.44 |

Second part, led by results:

| IC50 (log10 M) [7] | IC50 (log10 M) [10] | IC50 (log10 M) [11] | IC50 (log10 M) [12] | IC50 (log10 M) [13] | IC50 (log10 M) [16] | IC50 (log10 M) [17] | IC50 (log10 M) [18] | IC50 (log10 M) [19] | Structure (SMILES) | area under dose-response curve [1] | area under dose-response curve [2] | area under dose-response curve [3] | area under dose-response curve [4] | area under dose-response curve [5] | area under dose-response curve [6] | IC50 (log10 M) [8] | IC50 (log10 M) [9] | IC50 (log10 M) [14] | IC50 (log10 M) [15] | IC50 (log10 M) [20] |
| --- | --- | --- | --- | --- | --- | --- | --- | --- | --- | --- | --- | --- | --- | --- | --- | --- | --- | --- | --- | --- |
| -7.4 | -7.41 | -7.27 | -7.35 | -7.03 | -7.12 | -7.46 | -7.14 |  | CN1CC[C@H](c2c(O)cc(O)c3c(=O)cc(-c4ccccc4Cl)oc23)[C@H](O)C1 [Flavopiridol] | 388 | 436 | 408 | 476 | 474 | 300 | -7.2 | -7.47 | -7.17 | -6.96 |  |
| -6.96 | -7 | -7.09 | -8.28 | -6.98 | -7.03 | -7.03 | -7 | -7.2 | COc1cccc2c1C(=O)c1c(O)c3c(c(O)c1C2=O)C[C@@](O)(C(C)=O)C[C@@H]3O[C@H]1C[C@H](N)[C@H](O)[C@H](C)O1 [Daunorubicin HCl] | 426 | 407 | 339 | 440 | 479 | 495 | -8.26 | -6.92 | -6.96 | -7.23 | -6.76 |
| > -5 | > -5 | > -5 | > -5 | > -5 | > -5 | > -5 | > -5 | > -5 | C[C@]1(c2nc3c(C(N)=O)cccc3[nH]2)CCCN1 [ABT-888] | 674 | 638 | 654 | 663 | 668 | 684 | > -5 | > -5 | > -5 | > -5 | > -5 |
| -7.04 | -7.45 | -7.47 | -7.27 | -7.55 | -7.59 | -7.77 |  | -6.64 | COC1=CC(c2cc3ccccc3[nH]2)=N/C1=C\c1[nH]c(C)cc1C [Obatoclax] | 376 | 365 | 390 | 321 | 338 | 366 | -7.65 | -7.66 | -8.02 | -7.77 | -7.72 |
| > -5 | > -5 | -5.71 | > -5 | > -5 | > -5 | -5.74 | > -5 | > -5 | S=c1[nH]cnc2nc[nH]c12 [Mercaptopurine] | 670 | 603 | 632 | 693 | 708 | 694 | > -5 | > -5 | > -5 | > -5 | > -5 |
